Assays:
[1] = molecular target: T1, GST-MKK3 and full-length VF-MYC interaction (Homo sapiens, UniProt P46734); test: dose-response cell lysate-based TR-FRET assay; format: binding; conditions: for inhibition of MKK3-MYC PPI in dose-response TR-FRET: up to 100 µM compound
T1 sequence (P46734 1-347): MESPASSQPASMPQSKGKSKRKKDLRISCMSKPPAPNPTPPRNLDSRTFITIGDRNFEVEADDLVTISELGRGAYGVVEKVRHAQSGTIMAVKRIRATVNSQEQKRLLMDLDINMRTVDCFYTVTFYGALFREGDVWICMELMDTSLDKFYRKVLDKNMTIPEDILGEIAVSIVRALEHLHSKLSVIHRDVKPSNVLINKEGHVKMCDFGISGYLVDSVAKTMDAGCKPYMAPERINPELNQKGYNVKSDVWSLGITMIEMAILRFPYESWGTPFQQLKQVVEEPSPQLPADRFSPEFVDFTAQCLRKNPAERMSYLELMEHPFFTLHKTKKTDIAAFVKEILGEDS

[2] = test system: MYC, CDK4 and PD-L1 level in HCT116 cells; test: Western blot of MYC and MYC-target genes; format: cell-based; conditions: RG108 up to 10 µM
[3] = test system: MYC transcriptional activity in HCT116 cells; test: luciferase-based MYC reporter assay; format: cell-based; conditions: HCT116 cells expressing VF-MKK3; 0.5 to 5 µM, 12 hours
MKK3-MYC PPI = molecular target: T2, MKK3-MYC PPI (Homo sapiens, UniProt P46734); test: GST pull-down PPI inhibition assay, compound-treated HEK293T lysates; format: binding; conditions: lysates treated with 50 µM
T2 sequence (P46734 1-347): T1 sequence (P46734 1-347)

MKK3-p38 PPI = molecular target: T3, MKK3-p38 PPI (Homo sapiens, UniProt P46734); test: as above; format: binding; conditions: up to 50 µM
T3 sequence (P46734 1-347): T1 sequence (P46734 1-347)

MYC-MAX PPI = MYC-MAX PPI (Homo sapiens, UniProt P01106); test: as above; format: binding; conditions: up to 50 µM
[4] = molecular target: T4, GST-MKK3 association with endogenous MYC in HCT116 cells (Homo sapiens, UniProt P46734); test: GST pull-down from compound-treated cells; format: cell-based; conditions: HCT116 cells treated with increased concentration
T4 sequence (P46734 1-347): T1 sequence (P46734 1-347)

[5] = test system: phosphorylation of MKK3 substrate p38 in HEK293T cells; test: p38 phosphorylation in compound-treated cells; format: cell-based; conditions: HEK293T cells incubated with compound
[6] = test system: MYC level in MDA-MB-468 cells; test: Western blot of MYC level; format: cell-based; conditions: increasing concentration
[7] = test system: MYC transcriptional activity in MDA-MB-468 cells; test: luciferase-based MYC reporter assay; format: cell-based; conditions: MDA-MB-468 cells expressing VF-MKK3; 0.5 to 5 µM, 12 hours
Renilla luciferase = test: luciferase interference control; format: cell-based; conditions: cells treated with 10 µM, vs DMSO control

MYC-MAX PPI, sequence (P01106 16-454): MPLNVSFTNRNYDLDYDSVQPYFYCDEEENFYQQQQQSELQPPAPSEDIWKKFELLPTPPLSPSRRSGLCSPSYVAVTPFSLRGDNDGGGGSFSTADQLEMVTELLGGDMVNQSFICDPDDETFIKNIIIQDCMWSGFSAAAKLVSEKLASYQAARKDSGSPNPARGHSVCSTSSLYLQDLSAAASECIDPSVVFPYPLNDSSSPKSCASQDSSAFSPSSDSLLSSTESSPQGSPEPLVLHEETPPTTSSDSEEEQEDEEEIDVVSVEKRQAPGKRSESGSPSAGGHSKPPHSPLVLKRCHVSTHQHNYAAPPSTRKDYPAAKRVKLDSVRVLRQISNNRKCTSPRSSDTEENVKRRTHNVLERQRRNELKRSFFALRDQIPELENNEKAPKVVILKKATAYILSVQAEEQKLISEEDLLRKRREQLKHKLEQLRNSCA

Row | SMILES | inhibition of MKK3-MYC PPI in dose-response TR-FRET [1] | level of MYC and MYC-target genes (CDK4, PD-L1) [2] | MKK3-induced MYC transcriptional activity, reporter assay [3] | IC50 [1] [µM] | inhibition of MKK3-MYC PPI in GST pull-down (MKK3-MYC PPI) | suppression of MKK3-p38 PPI in GST pull-down (MKK3-p38 PPI) | suppression of MYC-MAX PPI in GST pull-down (MYC-MAX PPI) | association of GST-MKK3 with endogenous MYC [4] | phosphorylation of MKK3 substrate p38 [5] | MYC level [6] | MKK3-induced MYC transcriptional activity, reporter assay [7] | Renilla luciferase activity (Renilla luciferase)
1 | Cc1cc2c(C(C)C)c(O)c(O)c(C=O)c2c(O)c1-c1c(C)cc2c(C(C)C)c(O)c(O)c(C=O)c2c1O [AT101, (−)-1,1’,6,6’,7,7’-Hexahydroxy-3,3’-dimethyl-5,5’-bis(1-methylethyl)-[2,2’-binaphthalene]-8,8’dicarboxaldehyde] | did not demonstrate detectable inhibition | – | – | – | – | – | – | – | – | – | – | –
2 | O=C(O)[C@H](Cc1c[nH]c2ccccc12)N1C(=O)c2ccccc2C1=O [RG108] | does not interfere | did not suppress | not suppressed | – | – | – | – | – | – | – | – | –
3 | Cc1cc(Nc2ccc(NC(=O)c3ccc(Nc4ccnc5ccccc45)cc3)cc2)nc(N)n1 [SGI-1027, N-[4-[(2-Amino-6-methylpyrimidin-4-yl)amino]phenyl]-4-(quinolin-4-ylamino)benzamide] | – | substantial decrease | diminished | 8 | confirmed the inhibition | did not observe a significant suppression | did not observe a significant suppression | decreased association | did not decrease | decreased proportionally | diminished | did not observe a decrease

— paper PMC8456368 (Bioorganic & medicinal chemistry, 2021)
